Results taken from ChEMBL document CHEMBL6121048 (J Med Chem, 2025).
The source made the active and inactive calls. The calls are words filed in the database; no cut-off is given here.

Assays:
[1] = Apparent permeability across apical to basolateral side in dog MDR1-deficient MDCK cells expressing human MDR1 at 3 uM by LC-MS/MS analysis; type: ADME, cell-based, Canis lupus familiaris
[2] = Apparent permeability across basolateral to apical side in dog MDR1-deficient MDCK cells expressing human MDR1 at 3 uM by LC-MS/MS analysis; type: ADME, cell-based, Canis lupus familiaris
[3] = Efflux ratio of apparent permeability across basolateral to apical over apical to basolateral side in dog MDR1-deficient MDCK cells expressing human MDR1 at 3 uM by LC-MS/MS analysis; type: ADME, cell-based, Canis lupus familiaris
[4] = biological target: Ionotropic glutamate receptor NMDA 1/2C (Homo sapiens) (UniProt Q05586+Q14957); test: Agonist activity at GluN1/GluN2C (unknown origin) expressed in xenopus laevis oocytes by measuring maximum response by two-electrode voltage-clamp method relative to glycine; type: cell-based
[5] = biological target: T1, Glutamate NMDA receptor; Grin1/Grin2a (Rattus norvegicus) (UniProt P35439+Q00959); test: Partial agonist activity at recombinant rat GluN1/GluN2A NMDA receptor expressed in xenopus laevis oocytes by measuring maximum response by two-electrode voltage-clamp method relative to glycine; type: cell-based; details: filed as partial agonist
[6] = biological target: T2, Glutamate NMDA receptor; Grin1/Grin2b (Rattus norvegicus) (UniProt P35439+Q00960); test: Agonist activity at recombinant rat GluN1/GluN2B NMDA receptor expressed in xenopus laevis oocytes by measuring maximum response by two-electrode voltage-clamp method relative to glycine; type: cell-based; details: filed as agonist
[7] = biological target: T3, Glutamate NMDA receptor; Grin1/Grin2c (Rattus norvegicus) (UniProt P35439+Q00961); test: Agonist activity at recombinant rat GluN1/GluN2C NMDA receptor expressed in xenopus laevis oocytes by measuring maximum response by two-electrode voltage-clamp method relative to glycine; type: cell-based; details: filed as agonist
[8] = biological target: T4, Ionotropic glutamate receptor NMDA 1/2D (Rattus norvegicus) (UniProt P35439+Q62645); test: Partial agonist activity at recombinant rat GluN1/GluN2D NMDA receptor expressed in xenopus laevis oocytes by measuring maximum response by two-electrode voltage-clamp method relative to glycine; type: cell-based
[9] = Metabolic stability in human liver microsomes assessed as half life at 1 uM incubated for 5 mins in presence of NADPH by LC-MS/MS analysis; type: ADME, Microsome
[10] = biological target: T5, Glutamate NMDA receptor; Grin1/Grin2a (Rattus norvegicus, UniProt P35439+Q00959); test: Partial agonist activity at recombinant rat GluN1/GluN2A NMDA receptor expressed in xenopus laevis oocytes in presence of L-glutamate by two-electrode voltage-clamp method; type: cell-based
[11] = biological target: T6, Glutamate NMDA receptor; Grin1/Grin2c (Rattus norvegicus, UniProt P35439+Q00961); test: Agonist activity at recombinant rat GluN1/GluN2C NMDA receptor expressed in xenopus laevis oocytes in presence of L-glutamate by two-electrode voltage-clamp method; type: cell-based
[12] = biological target: T7, Ionotropic glutamate receptor NMDA 1/2D (Rattus norvegicus, UniProt P35439+Q62645); test: Partial agonist activity at recombinant rat GluN1/GluN2D NMDA receptor expressed in xenopus laevis oocytes in presence of L-glutamate by two-electrode voltage-clamp method; type: cell-based
[13] = biological target: T2, Glutamate NMDA receptor; Grin1/Grin2b (Rattus norvegicus); test: Agonist activity at recombinant rat GluN1/GluN2B NMDA receptor expressed in xenopus laevis oocytes at 10 uM by two-electrode voltage-clamp method relative to control; type: cell-based
[14] = biological target: T2, Glutamate NMDA receptor; Grin1/Grin2b (Rattus norvegicus); test: Agonist activity at recombinant rat GluN1/GluN2B NMDA receptor expressed in xenopus laevis oocytes at 30 uM by two-electrode voltage-clamp method relative to control; type: cell-based
[15] = biological target: Glutamate NMDA receptor; Grin1/Grin2b (Rattus norvegicus, UniProt P35439+Q00960); test: Inhibition of recombinant rat GluN1/GluN2B NMDA receptor expressed in xenopus laevis oocytes in presence of glycine and L-glutamate by two-electrode voltage-clamp method; type: cell-based
[16] = biological target: T2, Glutamate NMDA receptor; Grin1/Grin2b (Rattus norvegicus); test: Inhibition of recombinant rat GluN1/GluN2B NMDA receptor expressed in xenopus laevis oocytes in presence of glycine and L-glutamate by measuring maximum response by two-electrode voltage-clamp method relative to control; type: cell-based
[17] = biological target: T5, Glutamate NMDA receptor; Grin1/Grin2a; test: Inhibition of recombinant rat GluN1/GluN2A NMDA receptor expressed in xenopus laevis oocytes in presence of glycine and L-glutamate by two-electrode voltage-clamp method; type: cell-based
[18] = biological target: T1, Glutamate NMDA receptor; Grin1/Grin2a (Rattus norvegicus); test: Inhibition of recombinant rat GluN1/GluN2A NMDA receptor expressed in xenopus laevis oocytes in presence of glycine and L-glutamate by measuring maximum response by two-electrode voltage-clamp method relative to control; type: cell-based
[19] = biological target: T6, Glutamate NMDA receptor; Grin1/Grin2c; test: Inhibition of recombinant rat GluN1/GluN2C NMDA receptor expressed in xenopus laevis oocytes in presence of glycine and L-glutamate by two-electrode voltage-clamp method; type: cell-based
[20] = biological target: T3, Glutamate NMDA receptor; Grin1/Grin2c (Rattus norvegicus); test: Inhibition of recombinant rat GluN1/GluN2C NMDA receptor expressed in xenopus laevis oocytes in presence of glycine and L-glutamate by measuring maximum response by two-electrode voltage-clamp method relative to control; type: cell-based
[21] = biological target: T4, Ionotropic glutamate receptor NMDA 1/2D (Rattus norvegicus); test: Inhibition of recombinant rat GluN1/GluN2D NMDA receptor expressed in xenopus laevis oocytes at 30 uM in presence of glycine and L-glutamate by measuring maximum response by two-electrode voltage-clamp method relative to control; type: cell-based
[22] = biological target: T2, Glutamate NMDA receptor; Grin1/Grin2b (Rattus norvegicus); test: Agonist activity at recombinant rat GluN1/GluN2B NMDA receptor expressed in xenopus laevis oocytes at 1 uM by two-electrode voltage-clamp method relative to control; type: cell-based
Rattus norvegicus [23] = species: Rattus norvegicus; test: Selectivity ratio of EC50 for partial agonist activity at recombinant rat GluN1/GluN2A NMDA receptor expressed in xenopus laevis oocytes to EC50 for agonist activity at recombinant rat GluN1/GluN2C NMDA receptor expressed in xenopus laevis oocytes; type: cell-based
Rattus norvegicus [24] = species: Rattus norvegicus; test: Selectivity ratio of EC50 for partial agonist activity at recombinant rat GluN1/GluN2D NMDA receptor expressed in xenopus laevis oocytes to EC50 for agonist activity at recombinant rat GluN1/GluN2C NMDA receptor expressed in xenopus laevis oocytes; type: cell-based
Rattus norvegicus [25] = species: Rattus norvegicus; test: Agonist activity at recombinant rat GluN1 Y692L mutant receptor expressed in xenopus laevis oocytes in presence of L-glutamate by two-electrode voltage-clamp method; type: cell-based
Rattus norvegicus [26] = species: Rattus norvegicus; test: Agonist activity at recombinant rat GluN1 F754L mutant receptor expressed in xenopus laevis oocytes in presence of L-glutamate by two-electrode voltage-clamp method; type: cell-based
[27] = Selectivity ratio of EC50 for wild type GluN1/GluN2C receptor to EC50 for GluN1 V689I/2C receptor expressed in xenopus laevis oocytes; type: cell-based
Rattus norvegicus [28] = species: Rattus norvegicus; test: Agonist activity at recombinant rat GluN1 V689I mutant receptor expressed in xenopus laevis oocytes assessed as fold reduction by two-electrode voltage-clamp method; type: cell-based; details: filed as agonist
[29] = Selectivity ratio of EC50 for wild type GluN1/2C receptor to EC50 for GluN1 S688A/2C mutant receptor expressed in xenopus laevis oocytes; type: cell-based
[30] = biological target: T2, Glutamate NMDA receptor; Grin1/Grin2b (Rattus norvegicus); test: Agonist activity at recombinant rat GluN1/GluN2B NMDA receptor expressed in xenopus laevis oocytes at 3 uM by two-electrode voltage-clamp method relative to control; type: cell-based
[31] = biological target: T7, Ionotropic glutamate receptor NMDA 1/2D; test: Inhibition of recombinant rat GluN1/GluN2D NMDA receptor expressed in xenopus laevis oocytes in presence of glycine and L-glutamate by two-electrode voltage-clamp method; type: cell-based

Compound | Papp [1] [×10⁻⁶ cm/s] | Papp [2] [×10⁻⁶ cm/s] | Rmax [5] [%] | Rmax [7] [%] | Rmax ([8]; filed as partial agonist) [%] | EC50 [10] [nM] | Rmax [8] [%] | EC50 [11] [nM] | EC50 [12] [nM] | Activity [14] [%] | other results
N[C@H](CNC(=O)c1cc2c(Cl)ccc(Cl)c2[nH]1)C(=O)O | – | – | – | – | – | – | – | – | – | – | Rmax [4]: 38%
NCC(=O)O | – | – | 100 | 100 | 100 | – | – | – | – | – | Rmax [6]: 100%
COc1cccc(F)c1-c1ccc(C(=O)NC[C@@H](N)C(=O)O)s1 | – | – | 67 | 179 | – | 290 | 29 | 110 | 180 | – | Activity [13]: < 5%
N[C@H](CNC(=O)c1ccc(-c2ccccc2)s1)C(=O)O | – | – | 69 | 326 | 43 | 2280 | – | 640 | 3270 | < 5 | IC50 [15]: 2100 nM; Rmax [16]: 3%; IC50 [17]: 1900 nM; Rmax [18]: 137%; IC50 [19]: 3900 nM; Rmax [20]: 395%; Rmax [21]: 20%
N[C@H](CNC(=O)c1cc(Br)c(-c2ccccc2Br)s1)C(=O)O | 0.9 | 7.4 | 58 | 430 | – | 18 | 30 | 3 | 16 | – | Activity [22]: < 5%; Ratio EC50 (Rattus norvegicus [23]): 6.2; Ratio EC50 (Rattus norvegicus [24]): 5.5; t1/2 [9]: > 2 h; Ratio [3]: 8.2
N[C@H](CNC(=O)c1ccc(-c2cccc(F)c2)s1)C(=O)O | – | – | 61 | 390 | 42 | 3730 | – | 1880 | 5580 | < 5 | –
N[C@H](CNC(=O)c1ccc(-c2cccc(F)c2F)s1)C(=O)O | – | – | 62 | 321 | 41 | 1990 | – | 930 | 3520 | < 5 | –
CCc1ccccc1-c1ccc(C(=O)NC[C@@H](N)C(=O)O)o1 | – | – | – | – | – | – | – | – | – | – | IC50 [15]: 150 nM; Rmax [16]: 2%; IC50 [17]: 540 nM; Rmax [18]: 77%; IC50 [19]: 1100 nM; Rmax [20]: 65%; IC50 [31]: 1300 nM; Rmax [21]: 7%
Cc1cc(C(=O)NC[C@@H](N)C(=O)O)sc1-c1ccccc1Br | – | – | 75 | 267 | – | 51 | 30 | 25 | 120 | – | Activity [22]: < 5%
COc1ccc(F)cc1-c1ccc(C(=O)NC[C@@H](N)C(=O)O)s1 | – | – | 83 | 306 | – | 1070 | 23 | 740 | 1450 | < 5 | –
N[C@H](CO)C(=O)O | – | – | 102 | 116 | 93 | – | – | – | – | – | –
N[C@H](CNC(=O)c1cc(Br)c(-c2ccccc2F)s1)C(=O)O | 1.6 | 2.2 | 54 | 864 | 44 | 210 | – | 34 | 240 | – | Activity [13]: < 5%; Ratio EC50 (Rattus norvegicus [23]): 6.2; Ratio EC50 (Rattus norvegicus [24]): 7.1; t1/2 [9]: > 2 h; Ratio [3]: 1.4; Activity (Rattus norvegicus [25]; filed as agonist): Active; Compound Shows Reduced Efficacy Compared To Wild-Type Glun1/2C; Activity (Rattus norvegicus [26]; filed as agonist): Active; Compound Shows Reduced Efficacy Compared To Wild-Type Glun1/2C; Ratio EC50 [27]: 2.6; fold change (FC) (Rattus norvegicus [28]): 2; Ratio EC50 [29]: 1.9
N[C@H](CNC(=O)c1ccc(-c2ccccc2C(F)(F)F)s1)C(=O)O | – | – | 62 | 158 | – | 150 | 24 | 88 | 200 | < 5 | –

Second part, led by results:

Papp [1] [×10⁻⁶ cm/s] | Papp [2] [×10⁻⁶ cm/s] | Rmax [5] [%] | Rmax [7] [%] | Rmax ([8]; filed as partial agonist) [%] | EC50 [10] [nM] | Rmax [8] [%] | EC50 [11] [nM] | EC50 [12] [nM] | Activity [14] [%] | Compound | other results
0.77 | 5.7 | – | – | – | – | – | – | – | – | COC(=O)c1ccccc1-c1c2ccc(=N)cc-2oc2cc(N)ccc12.Cl [RHODAMINE123] | Ratio [3]: 7.5
0.81 | 7.4 | – | – | – | – | – | – | – | – | CCc1ccccc1-c1cccc2[nH]c(C(=O)NC[C@@H](N)C(=O)O)cc12 | t1/2 [9]: > 2 h; Ratio [3]: 9.2
– | – | 90 | 293 | – | 1280 | 24 | 660 | 1290 | < 5 | COc1ccccc1-c1ccc(C(=O)NC[C@@H](N)C(=O)O)s1 | –
0.53 | 0.88 | 80 | 156 | – | 74 | 28 | 38 | 72 | < 5 | N[C@H](CNC(=O)c1ccc(-c2ccccc2Br)s1)C(=O)O | t1/2 [9]: > 2 h; Ratio [3]: 1.6; Activity (Rattus norvegicus [25]): inactive; Activity (Rattus norvegicus [26]): inactive; Ratio EC50 [27]: 2.9; fold change (FC) (Rattus norvegicus [28]): 1.5; Ratio EC50 [29]: 1.4
– | – | 59 | 116 | – | 102 | 34 | 133 | 303 | – | N[C@H](CNC(=O)c1ccc(-c2cccc3ccccc23)s1)C(=O)O | Activity [30]: < 5%
107.4 | 89.6 | – | – | – | – | – | – | – | – | CC(C)OC(=O)[C@H](N)CNC(=O)c1ccc(-c2ccccc2Br)s1 | t1/2 [9]: 0.367 h; Ratio [3]: 0.83
– | – | 63 | 410 | 45 | 880 | – | 230 | 980 | < 5 | N[C@H](CNC(=O)c1ccc(-c2ccccc2F)s1)C(=O)O | –
2 | 1.4 | 77 | 234 | – | 57 | 32 | 41 | 81 | – | CCc1ccccc1-c1ccc(C(=O)NC[C@@H](N)C(=O)O)s1 | Activity [30]: < 5%; t1/2 [9]: > 2 h; Activity (Rattus norvegicus [25]): inactive; Activity (Rattus norvegicus [26]): inactive; fold change (FC) (Rattus norvegicus [28]): 1.3
